In patent US20050282818A1, “Ubiquitin ligase inhibitors” (Rigel Pharmaceuticals, Inc., priority 2004, published 2005):
Where two headings read alike, the source gives them in different places.

Tests used:
TRAF6/Uev1A/Ubc13 = target: T1, TRAF6/Uev1A/Ubc13 (Homo sapiens, UniProt Q9Y4K3); test: TRAF6/Uev1A/Ubc13 plate-based ubiquitin ligase assay; assay type: biochemical
T1 sequence (Q9Y4K3 1-522): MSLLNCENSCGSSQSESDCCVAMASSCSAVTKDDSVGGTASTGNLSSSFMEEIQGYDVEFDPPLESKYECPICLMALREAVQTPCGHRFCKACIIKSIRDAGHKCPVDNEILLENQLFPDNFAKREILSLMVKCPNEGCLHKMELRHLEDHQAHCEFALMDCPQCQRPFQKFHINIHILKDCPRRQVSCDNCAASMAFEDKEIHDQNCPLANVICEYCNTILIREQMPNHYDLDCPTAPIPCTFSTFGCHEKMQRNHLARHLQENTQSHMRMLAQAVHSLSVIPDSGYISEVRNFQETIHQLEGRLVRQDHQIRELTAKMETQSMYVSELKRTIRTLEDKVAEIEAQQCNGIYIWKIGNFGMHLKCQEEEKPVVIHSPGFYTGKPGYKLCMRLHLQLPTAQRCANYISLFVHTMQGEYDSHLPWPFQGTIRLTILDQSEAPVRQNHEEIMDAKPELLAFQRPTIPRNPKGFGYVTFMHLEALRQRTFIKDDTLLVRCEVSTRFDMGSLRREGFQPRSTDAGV
How it was run: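 Ligase activity was read as luminescence from anti-Flag/HRP detection of Flag-ubiquitin bound to casein-blocked Ni-plates alongside His-ubiquitin after a 1 h room-temperature reaction. Buffer: 62.5 mM Tris pH 7.5, 6.25 mM MgCl2, 1.0 mM DTT, 2 μM ATP; E1, Uev1a/Ubc13 and TRAF6 added last to start. IC50s derived across compound concentrations.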

A549 cells = test: Cell proliferation PAD assay, A549; assay type: cell-based; details: Homo sapiens, 48 hours
How it was run: (§1)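 2,000 cells/well; compound added at 24 h (duplicate, 6.3-fold series, 10 mM stock, 500× dilution into wells); 48 h, 37 °C/5% CO2. Formamide fix, DAPI stain, image-based counts of live (proliferation), apoptotic, dead cells.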

H1299 cells = test: Cell proliferation PAD assay, H1299; assay type: cell-based; details: Homo sapiens, 48 hours
How it was run: as §1

[1] = NCI-H1299, 3pt, read-out: H1299 3pt
[2] = NCI-H1299, 6pt, read-out: H1299 6pt

IC50 (TRAF6/Uev1A/Ubc13) | IC50 (A549 cells; 3pt, read-out: A549 3pt) | IC50 (H1299 cells; [1]) | IC50 (A549 cells; 6pt, read-out: A549 6pt) | IC50 (H1299 cells; [2]) | SMILES
≥ 20 µM | 1 to 20 µM | 1 to 20 µM | – | – | O=S(=O)(Nc1cccc(F)c1)c1ccc(Cl)c2nonc12 [compound 263, 7-chloro-N-(3-fluorophenyl)-2,1,3-benzoxadiazole-4-sulfonamide]
≥ 20 µM | 1 to 20 µM | 1 to 20 µM | ≥ 20 µM | ≥ 20 µM | O=S(=O)(c1ccc(Cl)c2nonc12)N1CCN(c2ncccn2)CC1 [compound 184, 4-chloro-7-[(4-pyrimidin-2-ylpiperazin-1-yl)sulfonyl]-2,1,3-benzoxadiazole]
≥ 20 µM | 1 to 20 µM | 1 to 20 µM | ≥ 20 µM | < 1 µM | O=S(=O)(c1c(Cl)ccc2nonc12)N1CCN(c2cnccn2)CC1 [compound 200, 5-chloro-4-[(4-pyrazin-2-ylpiperazin-1-yl)sulfonyl]-2,1,3-benzoxadiazole]
1 to 20 µM | ≥ 20 µM | ≥ 20 µM | – | – | CCOC(=O)c1cc(C#N)c(C)nc1N1CCN(c2ccc([N+](=O)[O-])c3nonc23)CC1 [compound 153, ethyl 5-cyano-6-methyl-2-[4-(7-nitro-2,1,3-benzoxadiazol-4-yl)piperazin-1-yl]nicotinate]
1 to 20 µM | – | – | ≥ 20 µM | < 1 µM | CC1(C)CCN(S(=O)(=O)c2c(Cl)ccc3nonc23)CC1 [compound 245, 5-chloro-4-[(4,4-dimethylpiperidin-1-yl)sulfonyl]-2,1,3-benzoxadiazole]
≥ 20 µM | 1 to 20 µM | 1 to 20 µM | ≥ 20 µM | < 1 µM | CC(=O)N1CCN(S(=O)(=O)c2c(Cl)ccc3nonc23)CC1 [compound 201, 4-[(4-acetylpiperazin-1-yl)sulfonyl]-5-chloro-2,1,3-benzoxadiazole]
≥ 20 µM | 1 to 20 µM | 1 to 20 µM | ≥ 20 µM | ≥ 20 µM | COC(=O)c1ccc(NS(=O)(=O)c2ccc(F)c3nonc23)cc1 [compound 167, methyl 4-{[(7-fluoro-2,1,3-benzoxadiazol-4-yl)sulfonyl]amino}benzoate]
1 to 20 µM | – | – | 1 to 20 µM | 1 to 20 µM | COc1cccc(-c2ccc([N+](=O)[O-])c3nonc23)c1F [compound 314, 4-(2-Fluoro-3-methoxyphenyl)-7-nitro-2,1,3-benzoxadiazole]
< 1 µM | – | – | – | – | O=[N+]([O-])c1ccc(N2CCN(c3ncc(C(F)(F)F)cc3Cl)CC2)c2nonc12 [compound 315, 4-{4-[3-chloro-5-(trifluoromethyl)pyrindin-2-yl]piperazin-1-yl}-7-nitro-2,1,3-benzoxadiazole]
1 to 20 µM | – | – | < 1 µM | < 1 µM | CC(C)(C)c1ccc(-c2ccc([N+](=O)[O-])c3nonc23)cc1 [compound 313, 4-(4-Tert-butylphenyl)-7-nitro-2,1,3-benzoxadiazole]
≥ 20 µM | 1 to 20 µM | 1 to 20 µM | 1 to 20 µM | < 1 µM | O=S(=O)(c1ccc(Cl)c2nonc12)N1CCN(c2ccccc2)CC1 [compound 186, 4-chloro-7-[(4-phenylpiperazin-1-yl)sulfonyl]-2,1,3-benzoxadiazole]
1 to 20 µM | 1 to 20 µM | 1 to 20 µM | – | – | O=[N+]([O-])c1ccc(N2CCN(c3ccc(O)cc3)CC2)c2nonc12 [compound 146, 4-[4-(7-nitro-2,1,3-benzoxadiazol-4-yl)piperazin-1-yl]phenol]
1 to 20 µM | – | – | – | – | O=S(=O)(Nc1cccc2nonc12)c1ccc(Oc2ncc(C(F)(F)F)cc2Cl)cc1 [compound 78, N-2,1,3-benzoxadiazol-4-yl-4-{[3-chloro-5-(trifluoromethyl)pyridin-2-yl]oxy}benzenesulfonamide]
≥ 20 µM | 1 to 20 µM | 1 to 20 µM | ≥ 20 µM | ≥ 20 µM | N#Cc1ccccc1N1CCN(S(=O)(=O)c2c(Cl)ccc3nonc23)CC1 [compound 180, 2-{4-[(5-chloro-2,1,3-benzoxadiazol-4-yl)sulfonyl]piperazin-1-yl}benzonitrile]
≥ 20 µM | – | – | ≥ 20 µM | ≥ 20 µM | COc1cc(Nc2ccc3nonc3c2S(=O)(=O)Nc2cc(OC)c(Cl)cc2OC)c(OC)cc1Cl [compound 344, N-(4-chloro-2,5-dimethoxyphenyl)-5-([4-chloro-2,5-dimethoxyphenyl]amino)-2,1,3-benzoxadiazole-4-sulfonamide]
≥ 20 µM | 1 to 20 µM | 1 to 20 µM | 1 to 20 µM | 1 to 20 µM | O=S(=O)(Nc1ccc2cn[nH]c2c1)c1ccc(Cl)c2nonc12 [compound 220, 7-chloro-N-1 H-indazol-6-yl-2,1,3-benzoxadiazole-4-sulfonamide]
≥ 20 µM | 1 to 20 µM | 1 to 20 µM | – | – | O=S(=O)(Nc1ccc(F)c(F)c1)c1ccc(Cl)c2nonc12 [compound 262, 7-chloro-N-(3,4-difluorophenyl)-2,1,3-benzoxadiazole-4-sulfonamide]
≥ 20 µM | < 1 µM | 1 to 20 µM | < 1 µM | < 1 µM | O=[N+]([O-])c1ccc(SCCO)c2nonc12 [compound 150, 2-[(7-nitro-2,1,3-benzoxadiazol-4-yl)thio]ethanol]
≥ 20 µM | 1 to 20 µM | 1 to 20 µM | ≥ 20 µM | ≥ 20 µM | N#CC1(c2ccccc2)CCN(S(=O)(=O)c2ccc(O)c3nonc23)CC1 [compound 199, 1-[(7-hydroxy-2,1,3-benzoxadiazol-4-yl)sulfonyl]-4-phenylpiperidine-4-carbonitrile]
1 to 20 µM | – | – | – | – | O=[N+]([O-])c1ccc(Sc2nc3ccccc3s2)c2nonc12 [compound 158, 4-(1,3-benzothiazol-2-ylthio)-7-nitro-2,1,3-benzoxadiazole]
1 to 20 µM | ≥ 20 µM | ≥ 20 µM | ≥ 20 µM | ≥ 20 µM | O=S(=O)(c1ccc(Sc2cccc3cccnc23)c2nonc12)N1CCN(c2ncc(C(F)(F)F)cc2Cl)CC1 [compound 177, 8-{[7-({4-[3-chloro-5-(trifluoromethyl)pyridin-2-yl]piperazin-1-yl}sulfonyl)-2,1,3-benzoxadiazol-4-yl]thio}quinoline]
1 to 20 µM | – | – | – | – | O=[N+]([O-])c1ccc(Oc2ccc(S(=O)(=O)Nc3cccc4nonc34)cc2Cl)c(C(F)(F)F)c1 [compound 114, N-2,1,3-benzoxadiazol-4-yl-3-chloro-4-[4-nitro-2-(trifluoromethyl)phenoxy]benzenesulfonamide]
1 to 20 µM | – | ≥ 20 µM | – | – | Cc1ccc(Cl)cc1N1CCN(c2ccc([N+](=O)[O-])c3nonc23)CC1 [compound 145, 4-[4-(5-chloro-2-methylphenyl)piperazin-1-yl]-7-nitro-2,1,3-benzoxadiazole]
1 to 20 µM | – | – | – | – | O=S(=O)(Nc1cccc2nsnc12)c1ccc(Oc2ccccc2)cc1 [compound 94, N-2,1,3-benzothiadiazol-4-yl-4-phenoxybenzenesulfonamide]

SMILES | IC50 (TRAF6/Uev1A/Ubc13) | IC50 (A549 cells; 3pt, read-out: A549 3pt) | IC50 (H1299 cells; [1]) | IC50 (A549 cells; 6pt, read-out: A549 6pt) | IC50 (H1299 cells; [2])
CC1CC(C)CN(c2ccc([N+](=O)[O-])c3nonc23)C1 (stereo not drawn) [compound 144, 4-(3,5-dimethylpiperidin-1-yl)-7-nitro-2,1,3-benzoxadiazole] | 1 to 20 µM | – | ≥ 20 µM | – | –
O=[N+]([O-])c1ccc(N2CCC(O)(c3ccc(Cl)cc3)CC2)c2nonc12 [compound 159, 4-(4-chlorophenyl)-1-(7-nitro-2,1,3-benzoxadiazol-4-yl)piperidin-4-ol] | 1 to 20 µM | – | – | – | –
